# Assay results: US20160279207A1, “TARGETING GDF6 AND BMP SIGNALING FOR ANTI-MELANOMA THERAPY” (University of Massachusetts, priority 2015, published 2016)
# “Also recorded” adds a separate entry of the source.
# Assays:
# BMP signaling = test: Western blot of phospho-SMAD1 relative to total SMAD in DMH1-treated A375 cells; type: cell-based, human; details: 10 μM DMH1 vs control media
# Procedure: Protein extracts were prepared as previously described (S. D. Epstein L B, Hunte-McDonough B, harris C A, Cytokines: A pratical approach (Balkwill F R., ed). 81-93 (1991)). Extracts were separated on 12% SDS-PAGE gels. Blots were probed with primary antibodies (GDF6 (Sigma PRS4691; 1:1000), phospho-SMAD1/5/8 (Cell Signaling 13820; 1:1000), SMAD1 (Cell Signaling 9743; 1:500), Total SMAD1/5/8 (Santa Cruz sc-6031-R; 1:1000), FLAG (Sigma F3165, 1:2000), GAPDH (Abcam 8245; 1:2000)) overnight at 4° C., washed five times in TBS plus 0.1% Tween (TBST) and then incubated with the appropriate HRP-conjugated secondary antibody (Jackson Labs) for 1 hour at room temperature. Membranes were washed five times in TBST and visualized on autoradiography film after incubating with ECL reagent (Supersignal West Pico or Supersignal West Femto; Thermo Scientific).
# A375 melanoma cells [1] = test: Growth curves of A375 cells by direct cell counting; type: cell-based, human; details: 10 μM DMH1 vs control
# Procedure: (§1) For growth curves 50,000 live cells were seeded per well in a 6-well tissue culture plate on day 0. The numbers of live cells were calculated every day using an automated cell counter (Nexcelom Bioscience Cellometer Auto T4) following standard procedures. All assays were performed with technical replicates. For clonogenic assays, 3,000 live cells were seeded in a 10 cm tissue culture plate. After 3 weeks, colonies were fixed and stained using bromophenol blue in acetone. ImageJ was used to quantify the number of colonies. In assays with DMH1 treatment, control or DMH1-containing media was replaced every other day. For soft agar assays a 0.5% bottom layer (1:1 with 1% agar and 2X DMEM with 20% FBS) and a 0.3% top layer (1:1 with 0.6% agar and 2× DMEM with 20% FBS) were used. 3,000 live cells per well of a 6-well tissue culture plate were added in the top layer. Media was added initially then replaced every 3 days. After 3 weeks, colonies were stained with nitroblue tetrazolium chloride overnight at 37° C. Once stained, individual wells were photographed, and ImageJ was used to count the number of colonies. All these assays were done in triplicate, and experiments were repeated at least twice. A representative image of each has been shown.
# SKMEL28 melanoma cells = test: Growth curves of SKMEL28 cells by direct cell counting; type: cell-based, human; details: DMH1 vs control
# Procedure: as §1
# A375 melanoma cells [2] = test: Clonogenic growth (colony formation) assay; type: cell-based, human; details: A375-EMPTY vs A375-SMAD1DVD, 10 μM DMH1 in 0.1% DMSO
# Procedure: as §1, with “After 3 weeks, colonies were fixed and stained using bromophenol blue in acetone.” left out
# A375 melanoma cells [3] = test: A375 melanoma xenograft in nude mice, tumor volume; type: in vivo, mouse; details: 25 mg/kg DMH1 intraperitoneally every other day, A375 cells in BALB/c nu/nu mice
# Procedure: An art-accepted model to test for an agent's effects on melanoma is that of using immunocompromised (“nude”) mice which are then injected subcutaneously with melanoma cells, and then concomitant with injection of the cells, sometime after injection, and/or after tumor establishment, the test agent is appropriately administered (e.g., intravenously, peritoneally, orally, etc.). Control and treated animals are monitored in part for tumor growth, tumor stabilization, and tumor regression (see for example, Yang et al. 2010. Cancer Res., 70:5518-5527 and Bollag et al. 2010. Nature. 467:596-599).
# All animal protocols were approved by the UMMS Institution Animal Care and Use Committee (A-2016, A-2171). Mice were randomly allocated to individual experimental groups. No blinding was done as animal groups were identified by tagging and cage labeling. Animals were excluded, according to pre-established criteria, if the tumor volume reached >1,000 mm^3; if tumor size or location affected the mobility or general health of animal, the animal was euthanized and excluded from the experiment or the complete experiment was terminated. A375 cells stably expressing an EGFP or GDF6 or SMAD1 shRNA and/or empty vector or GDF6-expressing vector or SMAD1DVD-overexpressing vector were subcutaneously injected into the flanks of 6-8-week-old BALB/c nu/nu female mice (Taconic Farms) to produce orthotopic primary tumor. Primary tumor growth was monitored every 3 days with calipers, and the tumor volume was calculated as described previously (C. Gazin, N. Wajapeyee, S. Gobeil, C. M. Virbasius, M. R. Green, An elaborate pathway required for Ras-mediated epigenetic silencing. Nature 449, 1073-1077 (2007)). For GDF6 knockdown, SMAD1 knockdown and epistasis experiments, 1×10^7 live cells were injected. For GDF6 overexpression experiments, 1×10^6 live cells were injected. For GDF6 overexpression and GDF6 knockdowns, a representative of two independent experiments (n=3 animals per experiment) is shown. For DMH1 drug experiments, 1×10^6 live A375 cells were subcutaneously injected in the flanks of BALB/c nu/nu female mice. Beginning on the day cells were injected, mice were injected intraperitoneally with vehicle 12.5% 2-hydroxypropyl-β-cyclodextrin or 25 mg/kg DMH1 in vehicle every other day. The growth of the tumor was monitored as described above. This experiment was repeated twice and the weighted average of both experiments (n=8 total) is represented.
compound,measurement,setting,value
CC(C)Oc1ccc(-c2cnc3c(-c4ccnc5ccccc45)cnn3c2)cc1 [DMH1],level of phospho-SMAD1 relative to total SMAD protein,BMP signaling,reduced level of phospho-SMAD1 relative to total SMAD protein
same,A375 melanoma cell growth (growth curves),A375 melanoma cells [1],grew more slowly than did control cells; also recorded: inhibits A375 melanoma cell growth
same,SKMEL28 melanoma cell growth (growth curves),SKMEL28 melanoma cells,grew more slowly than did control cells
same,colony formation of DMH1-treated cells expressing SMAD1DVD,A375 melanoma cells [2],reversed by SMAD1DVD
same,"tumor growth (tumor volume over time), DMH1 vs vehicle",A375 melanoma cells [3],smaller tumors arose and grew more slowly; also recorded: decreased tumorigenicity; also recorded: abrogates melanoma growth in mouse xenografts in vivo
